For one data set, the target named is Human recombinant LSD1 (Homo sapiens (Human), UniProt O60341). The data set can be described thus: LSD1 in vitro activity assay (LANCE Ultra LSD1 Histone H3-Lysine 4 Demethylase Assay). Type of data set: biochemical. Conditions: LSD1 inhibition. For orientation: TR-FRET usually uses a lanthanide donor and a delayed reading to cut background.
Another data set has as its target Human recombinant MAOA (Homo sapiens (Human), UniProt P21397). The data set can be described thus: MAOA in vitro activity experiment (MAO-Glo). Type of data set: biochemical.
For a further data set, the target named is human recombinant MAOB (Homo sapiens (Human), UniProt P27338). In words: MAOB in vitro activity experiment (MAO-Glo). Type of data set: biochemical.
Sequence of human recombinant MAOB (P27338 whole entry): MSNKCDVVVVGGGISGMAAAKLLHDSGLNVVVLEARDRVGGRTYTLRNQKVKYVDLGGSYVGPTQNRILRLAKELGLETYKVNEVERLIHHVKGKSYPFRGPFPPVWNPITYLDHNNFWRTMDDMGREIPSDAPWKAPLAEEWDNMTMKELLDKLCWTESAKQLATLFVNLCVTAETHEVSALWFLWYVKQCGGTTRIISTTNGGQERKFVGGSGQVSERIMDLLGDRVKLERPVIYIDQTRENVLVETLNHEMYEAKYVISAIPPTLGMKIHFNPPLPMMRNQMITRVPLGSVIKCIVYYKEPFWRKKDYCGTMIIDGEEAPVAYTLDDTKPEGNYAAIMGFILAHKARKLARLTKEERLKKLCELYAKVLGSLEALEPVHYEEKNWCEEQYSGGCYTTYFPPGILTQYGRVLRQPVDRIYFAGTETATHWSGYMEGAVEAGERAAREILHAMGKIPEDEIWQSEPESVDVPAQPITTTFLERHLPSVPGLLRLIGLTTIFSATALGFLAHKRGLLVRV
The test system of data set [1] is Leukemia cell line MV4-11. The data set can be described thus: Growth-inhibitory activity by MTS method. The data set is classed as cell-based. The note with it: Homo sapiens, MV4-11 cells. From the text: MTS assay was used to detect the growth inhibitory effect of tested compounds on leukemia cell MV (4:11), the principle of which was that succinate dehydrogenase in mitochondria in living cells can reduce exogenous thiazole blue to insoluble Blue crystalline Formazan.
MATERIALS: Leukemia cell line MV4-11: pediatric acute lymphocytic leukemia, immunological double phenotype, AF4-MLL fusion t (4,11), is a cell growth inhibitory cell line of LSD1 inhibitor (Cancer cell. 2012, 17; 21(4): 473-487).
1. MV4-11 cells in the logarithmic growth phase were taken, accurately counted 16000 cells/mL, and the diluted cell solution was added to a 96-well plate at 90 μL per well.
2. Fresh medium was taken and sequentially added to a 96-well plate with cell fluid, 90 μL per well.
3. In the compound plate, the compound to be tested at a concentration of 10 mM and the positive compounds ORY-1001 and GSK2879552 were taken and subjected to a 3-fold concentration gradient dilution with DMSO, 8 points for each.
4. 2 μL of the diluted compound was separately added to a 96-well plate containing 98 μL of blank medium, and DMSO group was added with 2 μL of DMSO into 98 μL of blank medium, and mixed for use.
5. The compound homogeneously mixed with the medium was separately added to a 96-well plate in which cells were plated in triplicate, 20 μL per well, and well mixed. In the blank group, 200 μL of IMDM medium was added, and in the DMSO group, 180 μL of the cell-containing medium in DMSO diluted with the medium was added.
6. […]
7. After 10 days, MTS was added and the values were read after 2.5 h of incubation.
(In general: Formazan colour is commonly taken as a measure of viable cells.)

Molecules are shown by their SMILES. Read-outs that look alike come from different tables or passages of the source.

Sequence of Human recombinant MAOA (P21397 whole entry): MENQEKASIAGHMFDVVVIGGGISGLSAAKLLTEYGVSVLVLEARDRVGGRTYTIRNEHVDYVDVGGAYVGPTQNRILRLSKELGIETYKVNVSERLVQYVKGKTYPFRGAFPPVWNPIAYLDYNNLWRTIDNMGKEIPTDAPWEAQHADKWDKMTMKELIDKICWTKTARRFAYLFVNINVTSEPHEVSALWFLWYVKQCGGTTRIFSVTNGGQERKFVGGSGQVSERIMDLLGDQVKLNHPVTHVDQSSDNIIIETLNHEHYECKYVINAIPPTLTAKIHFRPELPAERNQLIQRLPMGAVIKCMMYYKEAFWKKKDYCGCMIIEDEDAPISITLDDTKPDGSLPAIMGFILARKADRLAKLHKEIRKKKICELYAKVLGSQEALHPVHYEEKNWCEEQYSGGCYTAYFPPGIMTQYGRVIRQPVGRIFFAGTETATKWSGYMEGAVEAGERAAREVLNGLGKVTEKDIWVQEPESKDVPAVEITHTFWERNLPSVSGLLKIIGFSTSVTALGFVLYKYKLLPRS

Take `CC(C)(C)OC(=O)c1ccc(CN2CCC(CNC3CC3c3ccc4c(c3)CCN4S(=O)(=O)c3ccccc3)CC2)cc1` (stereo not drawn) [Compound A25, Trans-tert-butyl 4-((4-(2-(1-(phenylsulfonyl))indolin-5-yl)cyclopropylamino)methyl)piperidin-1-yl)methyl) benzoate]: the melting point (as a rule, the temperature of the solid-liquid transition) is 62 to 65 °C. Besides, the IC50 on Human recombinant LSD1 was 534 ± 384 nM.
With `O=S(=O)(c1ccc(C(F)(F)F)cc1)N1CCc2cc([C@@H]3C[C@H]3NCC3CCNCC3)ccc21` (relative stereo) [Compound A34, trans-N-(piperidin-4-ylmethyl)-2-(1-(4-(trifluoromethyl)benzenesulfonyl)indolin-5-yl)cyclopropylamine], the melting point is 217 to 221 °C. The IC50 on Human recombinant LSD1 was 43.3 ± 5.09 nM. Further, the IC50 on Human recombinant MAOA was over 100 µM. Besides, the IC50 at human recombinant MAOB is over 100 µM.
With `O=C(C1CCCCC1)N1CCc2cc([C@@H]3C[C@H]3NCC3CCNCC3)ccc21` (relative stereo) [Compound A59, Trans-cyclohexyl (5-(2-(piperidin-4-ylmethylamino)cyclopropyl)indolin-1-yl)methanone], the melting point fell in the range of 166 to 168 °C.
Take `O=S(=O)(c1ccccc1)N1CCc2cc([C@@H]3C[C@H]3NC3CCNCC3)ccc21` (relative stereo) [Compound A15, trans-N-(4-piperidinyl)-2-(1-(phenylsulfonyl)indolin-5-yl)cyclopropylamine]: the IC50 at Human recombinant LSD1 is 22.8 ± 0.37 nM; at Human recombinant MAOA, over 100 µM; at human recombinant MAOB, over 100 µM; in data set [1] (3 D, read-out: MTS 3 D), 3400 ± 1640 nM; in data set [1] (10 D, read-out: MTS 10 D), 180 ± 490 nM.
Regarding `N[C@@H]1C[C@H]1c1ccc2c(c1)CCN2S(=O)(=O)c1ccccc1` (relative stereo) [Compound A1, Trans-2-(1-(phenylsulfonyl)indolin-5-yl)cyclopropylamine], the melting point fell in the range of 190 to 193 °C. The IC50 at Human recombinant LSD1 is 1790 ± 88.4 nM.
With `O=C(c1ccc(-c2ccccc2)cc1)N1CCc2cc([C@@H]3C[C@H]3NCC3CCNCC3)ccc21` (relative stereo) [Compound A47, Trans-biphenyl-4-yl(5-(2-(piperidin-4-ylmethylamino)cyclopropyl)indolin-1-yl)methanone], the melting point is 179 to 180 °C. Further, the IC50 on Human recombinant LSD1 was found to be 10.2 ± 1.59 nM. Besides, the IC50 at Human recombinant MAOA was over 100 µM. Moreover, the IC50 at human recombinant MAOB amounted to 7.33 ± 0.11 µM.
As to `CCCS(=O)(=O)N1CCc2cc([C@@H]3C[C@H]3NCC3CCNCC3)ccc21` (relative stereo) [Compound A41, trans-N-(piperidin-4-ylmethyl)-2-(1-(propylsulfonyl)indolin-5-yl)cyclopropylamine], the melting point lay in the range of 187 to 191 °C. For the same compound, on Human recombinant MAOA, the IC50 was over 100 µM. Besides, the IC50 on human recombinant MAOB is over 100 µM.
The compound `O=C(O)c1ccc(CN2CCC(CNC3CC3c3ccc4c(c3)CCN4S(=O)(=O)c3ccccc3)CC2)cc1` (stereo not drawn) [Compound A26, Trans-4-((4-(2-(1-(phenylsulfonyl))indolin-5-yl)cyclopropylamino)methyl)piperidin-1-yl) methyl)benzoic acid] showed a melting point of 190 to 192 °C. The IC50 at Human recombinant LSD1 is 461 ± 31.9 nM.
Compound `O=C(c1cccc(C(F)(F)F)c1)N1CCc2cc([C@@H]3C[C@H]3NCC3CCNCC3)ccc21` (relative stereo) [Compound A48, Trans-(5-(2-(piperidin-4-ylmethylamino)cyclopropyl)indolin-1-yl)(3-(trifluoromethyl)phenyl) methanone] yielded a melting point of 230 to 232 °C. Further, on Human recombinant LSD1, the IC50 was determined as 25.57 ± 0.11 nM. On Human recombinant MAOA, the IC50 is over 100 µM. For the same compound, the IC50 at human recombinant MAOB was 42.6 ± 0.78 µM.
In turn, `O=C(OCc1ccccc1)N1CCC(CN[C@@H]2C[C@H]2c2ccc3c(c2)CCN3S(=O)(=O)c2ccccc2)CC1` (relative stereo) [Compound A28, Trans-benzyl 4-((2-(1-(phenylsulfonyl)indolin-5-yl)cyclopropylamino)methyl)piperidine-1-carboxylate] showed a melting point of 90 to 92 °C. On Human recombinant LSD1, the IC50 amounted to 265 ± 80.8 nM.
Turning to `CC(C)(C)OC(=O)N1CCC(CN[C@@H]2C[C@H]2c2ccc3c(c2)CCN3S(=O)(=O)c2ccccc2)CC1` (relative stereo) [Compound A27, Trans-tert-butyl 4-((2-(1-(phenylsulfonyl)indolin-5-yl)cyclopropylamino)methyl)piperidine-1-carboxylate], the melting point was in the range of 60 to 61 °C. Further, at Human recombinant LSD1, the IC50 is 71.3 ± 4.3 nM. Moreover, the IC50 at Human recombinant MAOA is over 100 µM. In addition, the IC50 at human recombinant MAOB is over 100 µM.
Turning to `O=C(OCc1ccccc1)N1CCc2cc([C@@H]3C[C@H]3NCC3CCNCC3)ccc21` (relative stereo) [Compound A50, Trans-benzyl-5-(2-(piperidin-4-ylmethylamino)cyclopropyl)Indoline-1-carboxylate], the melting point was 215 to 218 °C. The IC50 on Human recombinant LSD1 came out at 35.3 ± 3.48 nM. Besides, on Human recombinant MAOA, the IC50 is over 100 µM. The IC50 at human recombinant MAOB is 10.7 ± 1.22 µM.
Consider `CC(C)(C)OC(=O)N1CCC(C(=O)N[C@@H]2C[C@H]2c2ccc3c(c2)CCN3S(=O)(=O)c2ccccc2)CC1` (relative stereo) [Compound A29, Trans-tert-butyl 4-(2-(1-(phenylsulfonyl)indolin-5-yl)cyclopropylcarbamoyl)piperidine-1-carboxylate], for which the melting point is 146 to 148 °C. Moreover, the IC50 at Human recombinant LSD1 was found to be 1690 ± 449 nM.
